Each structure is given as a SMILES string.

A short description of data set [1]: Half life in CD1 mouse liver assessed as baloxavir acid level at 15 mg/kg, po administered as single dose measured up to 24 hrs by LC-MS/MS analysis. The class given is ADME, organism-based. Particulars: in vivo.
The nature of data set [2]: AUCinfinity in CD1 mouse plasma assessed as baloxavir acid level at 15 mg/kg, po administered as single dose measured up to 24 hrs by LC-MS/MS analysis. The data set is classed as ADME, organism-based. On the set-up: dose 15 mg/kg, route oral, time infinity. The settings on record: in vivo.
Data set [3] can be described thus: Tmax in CD1 mouse muscle assessed as baloxavir acid level at 15 mg/kg, po administered as single dose measured up to 24 hrs by LC-MS/MS analysis. The data set is classed as ADME, organism-based, Muscle tissue. Particulars: in vivo.
The nature of data set [4]: Elimination rate constant in CD1 mouse small intestine assessed as baloxavir acid level at 15 mg/kg, po administered as single dose measured up to 24 hrs by LC-MS/MS analysis. The data set is classed as ADME, organism-based. The settings on record: in vivo.
The nature of data set [5]: MRTlast in CD1 mouse kidney assessed as baloxavir acid level at 15 mg/kg, po administered as single dose measured up to 24 hrs by LC-MS/MS analysis. The data set is classed as ADME, organism-based. The settings on record: in vivo.
Data set [6] in a line: Cmax in CD1 mouse kidney assessed as baloxavir acid level at 15 mg/kg, po administered as single dose measured up to 24 hrs by LC-MS/MS analysis. The class given is ADME, organism-based. Further details: dose 15 mg/kg, route oral. Particulars: in vivo.
Data set [7] can be described thus: Oral bioavailability in CD1 mouse assessed as baloxavir acid level at 15 mg/kg administered as single dose by LC-MS/MS analysis. The data set is classed as ADME, organism-based. Particulars: in vivo.
Data set [8] can be described thus: Ratio of AUClast in CD1 mouse liver to plasma assessed as baloxavir acid level at 15 mg/kg, po administered as single dose measured up to 24 hrs by LC-MS/MS analysis. The data set is classed as ADME, organism-based. Particulars: other tissue.
A short description of data set [9]: MRTlast in CD1 mouse spleen assessed as baloxavir acid level at 15 mg/kg, po administered as single dose measured up to 24 hrs by LC-MS/MS analysis. The class given is ADME, organism-based. Particulars: in vivo.
Data set [10] can be described thus: Half life in CD1 mouse lung assessed as baloxavir acid level at 15 mg/kg, po administered as single dose measured up to 24 hrs by LC-MS/MS analysis. The settings on record: in vivo. The class given is ADME, organism-based.
Data set [11] can be described thus: AUCinfinity in CD1 mouse blood assessed as baloxavir acid level at 15 mg/kg, po administered as single dose measured up to 24 hrs by LC-MS/MS analysis. The class given is ADME, organism-based. On the set-up: dose 15 mg/kg, time infinity, route oral. The settings on record: in vivo.
A short description of data set [12]: Elimination rate constant in CD1 mouse small intestine assessed as (12aR)-12-(Diphenylmethyl)-7-hydroxy-3,4,12,12a-tetrahydro-1H-[1,4]oxazino[3,4-c]pyrido[2,1-f ][1,2,4]triazine-6,8-dione level at 15 mg/kg, po administered as single dose measured up to 24 hrs by LC-MS/MS analysis. The data set is classed as ADME, organism-based. Particulars: in vivo.
Data set [13] can be described thus: MRTlast in CD1 mouse brain assessed as (12aR)-12-(Diphenylmethyl)-7-hydroxy-3,4,12,12a-tetrahydro-1H-[1,4]oxazino[3,4-c]pyrido[2,1-f ][1,2,4]triazine-6,8-dione level at 15 mg/kg, po administered as single dose measured up to 24 hrs by LC-MS/MS analysis. The data set is classed as ADME, organism-based. Particulars: in vivo.
Data set [14] is described as follows: MRTlast in CD1 mouse blood assessed as (12aR)-12-(Diphenylmethyl)-7-hydroxy-3,4,12,12a-tetrahydro-1H-[1,4]oxazino[3,4-c]pyrido[2,1-f ][1,2,4]triazine-6,8-dione level at 15 mg/kg, po administered as single dose measured up to 24 hrs by LC-MS/MS analysis. The settings on record: in vivo. The data set is classed as ADME, organism-based.
A short description of data set [15]: AUCinfinity in CD1 mouse spleen assessed as (12aR)-12-(Diphenylmethyl)-7-hydroxy-3,4,12,12a-tetrahydro-1H-[1,4]oxazino[3,4-c]pyrido[2,1-f ][1,2,4]triazine-6,8-dione level at 15 mg/kg, po administered as single dose measured up to 24 hrs by LC-MS/MS analysis. The class given is ADME, organism-based. Particulars: in vivo. On the set-up: dose 15 mg/kg, route oral, time infinity.

Data set [16] is described as follows: Acute toxicity in CD1 mouse assessed as effect on spleen at 2000 mg/kg, po measured after 2 weeks by macroscopic analysis. The class given is organism-based. The settings on record: in vivo, 336 h.
Data set [17] is described as follows: Cmax in CD1 mouse small intestine assessed as (12aR)-12-(Diphenylmethyl)-7-hydroxy-3,4,12,12a-tetrahydro-1H-[1,4]oxazino[3,4-c]pyrido[2,1-f ][1,2,4]triazine-6,8-dione level at 15 mg/kg, po administered as single dose measured up to 24 hrs by LC-MS/MS analysis. The settings on record: in vivo. Further details: dose 15 mg/kg, route oral. The class given is ADME, organism-based.

Data set [18] is described as follows: MRTlast in CD1 mouse plasma assessed as (12aR)-12-(Diphenylmethyl)-7-hydroxy-3,4,12,12a-tetrahydro-1H-[1,4]oxazino[3,4-c]pyrido[2,1-f ][1,2,4]triazine-6,8-dione level at 15 mg/kg, po administered as single dose measured up to 24 hrs by LC-MS/MS analysis. The class given is ADME, organism-based. The settings on record: in vivo.
The nature of data set [19]: Cmax in CD1 mouse lung assessed as (12aR)-12-(Diphenylmethyl)-7-hydroxy-3,4,12,12a-tetrahydro-1H-[1,4]oxazino[3,4-c]pyrido[2,1-f ][1,2,4]triazine-6,8-dione level at 15 mg/kg, po administered as single dose by LC-MS/MS analysis. The class given is ADME, organism-based. Further details: dose 15 mg/kg, route oral. The settings on record: in vivo.
The nature of data set [20]: Stability in rat plasma assessed as parent compound remaining at 1 uM measured after 4 hrs by LC-MS/MS analysis. The data set is classed as ADME, cell-free. The settings on record: read-out: Stability.
Data set [21] can be described thus: MRTlast in CD1 mouse heart assessed as (12aR)-12-(Diphenylmethyl)-7-hydroxy-3,4,12,12a-tetrahydro-1H-[1,4]oxazino[3,4-c]pyrido[2,1-f ][1,2,4]triazine-6,8-dione level at 15 mg/kg, po administered as single dose measured up to 24 hrs by LC-MS/MS analysis. The class given is ADME, organism-based. The settings on record: in vivo.
Data set [22] can be described thus: Ratio of Cmax in CD1 mouse lung to plasma assessed as (12aR)-12-(Diphenylmethyl)-7-hydroxy-3,4,12,12a-tetrahydro-1H-[1,4]oxazino[3,4-c]pyrido[2,1-f ][1,2,4]triazine-6,8-dione level at 15 mg/kg, po administered as single dose by LC-MS/MS analysis. The class given is ADME, organism-based. The settings on record: other tissue.
The nature of data set [23]: Cmax in CD1 mouse spleen assessed as (12aR)-12-(Diphenylmethyl)-7-hydroxy-3,4,12,12a-tetrahydro-1H-[1,4]oxazino[3,4-c]pyrido[2,1-f ][1,2,4]triazine-6,8-dione level at 15 mg/kg, po administered as single dose measured up to 24 hrs by LC-MS/MS analysis. The class given is ADME, organism-based. On the set-up: dose 15 mg/kg, route oral. The settings on record: in vivo.
The nature of data set [24]: Acute toxicity in CD1 mouse assessed as effect on lung at 2000 mg/kg, po measured after 2 weeks by macroscopic analysis. The settings on record: in vivo, 336 h. The class given is organism-based.
Data set [25] can be described thus: Ratio of AUClast in CD1 mouse heart to plasma assessed as (12aR)-12-(Diphenylmethyl)-7-hydroxy-3,4,12,12a-tetrahydro-1H-[1,4]oxazino[3,4-c]pyrido[2,1-f ][1,2,4]triazine-6,8-dione level at 15 mg/kg, po administered as single dose measured up to 24 hrs by LC-MS/MS analysis. The class given is ADME, organism-based. The settings on record: other tissue.
A short description of data set [26]: AUClast in CD1 mouse kidney assessed as (12aR)-12-(Diphenylmethyl)-7-hydroxy-3,4,12,12a-tetrahydro-1H-[1,4]oxazino[3,4-c]pyrido[2,1-f ][1,2,4]triazine-6,8-dione level at 15 mg/kg, po administered as single dose measured up to 24 hrs by LC-MS/MS analysis. The data set is classed as ADME, organism-based. The settings on record: in vivo.

In general, Tmax refers to the time at which the peak concentration occurs. A word on the Cmax: it is the highest concentration seen after dosing. For `COC(=O)OCOc1c2n(ccc1=O)N([C@@H]1c3ccccc3SCc3c1ccc(F)c3F)[C@@H]1COCCN1C2=O` [BALOXAVIR MARBOXIL], the figures for the t1/2 in data set [1] and in [10] were 2.57 h and 3.4 h, respectively. The AUC stood at 558 ng·h/mL in data set [2] and 1390 ng·h/g in [11]. The Tmax in data set [3] worked out at 2 h. In data set [4], the Kel worked out at 0.22 h⁻¹. Further, the MRTlast in data set [5] was 4.27 h; in data set [9], 5.54 h. Besides, the maximum concentration (Cmax) in data set [6] was determined as 2998 ng/g. The F in [7] stood at 26.9%. Moreover, the “Ratio AUC” value in data set [8] amounted to 189.
Take `COC(=O)OCOc1c2n(ccc1=O)N(C(c1ccccc1)c1ccccc1)[C@@H]1COCCN1C2=O`: the Kel in data set [12] turned out to be 0.54 h⁻¹. Besides, the MRTlast turned out to be 3.33 h in data set [13], 1.78 h in [14], 1.67 h in data set [18] and 1.88 h in [21]. Also, in [15], the AUC was determined as 4713 ng·h/g. Further, the Activity result in data set [16] and in [24] was “Non-Toxic” each time. The Cmax in data set [17] is given as 24707 ng/g; in data set [19], 1882 ng/g; in data set [23] it was 1119 ng/g. The remaining at 4 h, 1 µM in data set [20] was 0%. In addition, in data set [22], the Ratio was determined as 2.2. For the same compound, in data set [25], the “Ratio AUC” value is given as 3.38. In data set [26], the AUClast came out at 18065 ng·h/g.
